Reference: patent US20150246907A1 (ETH Zurich, priority 2012, published 2015)
In brackets after ≈: the same amount, converted by molar mass.

System: Mycobacterium tuberculosis strain H37Rv
Assay: Minimal inhibitory concentration (MIC) by resazurin microtitre assay (REMA)
Type: cell-based
Conditions: for MIC: Mycobacterium tuberculosis, 168 h, M. tuberculosis H37Rv, REMA, 7 days (10 generations), 96-well plate

Compound | MIC [µg/mL] | activity against Mycobacterium tuberculosis (strain H37Rv) compared with pyridomycin (strain H37Rv, statement in words)
CC(C)[C@@H]1OC(=O)[C@H](C)[C@H](O)[C@H](Cc2cccnc2)NC(=O)[C@@H](NC(=O)c2ncccc2O)[C@@H](C)OC1=O [Analog 100a] | 12.5 (≈ 23.6 µM) | 
CC(C)[C@H]1OC(=O)[C@H](C)[C@H](O)[C@H](Cc2cccnc2)NC(=O)[C@@H](NC(=O)c2ncccc2O)[C@@H](C)OC1=O [Analog 100b] | 1.56 (≈ 2.95 µM) | in the same range of inhibitory activity as for pyridomycin
